Results reported in article PMC9178925 (Biochemical pharmacology, 2022).
Where “and” joins values, the source holds several entries; their conditions need not be identical. Equal values may be shown once.

Experiments:
[1] = biological target: α1β2γ2S GABAAR (Rattus norvegicus, UniProt P62813+P63138); format: cell-based, rat (β2 rat or human)
[2] = biological target: α1β2(K279A)γ2L GABAAR (Rattus norvegicus, UniProt P62813+P63138, K303A); format: cell-based, rat (β2 rat or human); conditions: β2(K279A)
[3] = biological target: α1β2(R269A)γ2L GABAAR (Rattus norvegicus, UniProt P62813+P63138, R293A); format: cell-based, rat (β2 rat or human); conditions: β2(R269A)
[4] = biological target: α1β1γ2S GABAAR (Rattus norvegicus, UniProt P15431+P62813); format: cell-based; conditions: 100 μM (+)-catharanthine, % over control EC5 GABA; mean ± SEM
[5] = biological target: α2β1γ2S GABAAR (UniProt P15431+P47869); format: cell-based, human α2, rat β1 and γ2S; conditions: 100 μM (+)-catharanthine, % over control EC5 GABA; mean ± SEM
[6] = biological target: T1, α1β2γ2L GABAAR (Rattus norvegicus, UniProt P62813+P63138); assay: Functional competition assay; conditions: for potentiation of GABA-activated receptors: n = 5 oocytes
[7] = biological target: α1(Q241L)β2γ2L GABAAR (Rattus norvegicus, UniProt P62813+P63138, Q268L); assay: Two-electrode voltage clamp, potentiation of low GABA currents in oocytes; format: cell-based, rat (β2 rat or human); conditions: 30 μM (+)-catharanthine, 30 μM GABA, n = 6 oocytes
[8] = biological target: α1β2(N265S)γ2L GABAAR (Rattus norvegicus, UniProt P62813+P63138, N289S); format: cell-based, rat (β2 rat or human); conditions: β2(N265S)
[9] = biological target: α1β2(N265S)γ2S GABAAR (Rattus norvegicus, UniProt P62813+P63138, N289S); assay: Two-electrode voltage clamp, potentiation of low GABA currents in oocytes; format: cell-based, rat (β2 rat or human); conditions: 100 μM (+)-catharanthine, ~EC5 GABA
[10] = biological target: α2β3γ2S GABAAR (UniProt P47869+P63079); assay: Two-electrode voltage clamp, potentiation of EC5 GABA currents in oocytes; format: cell-based, human α2, rat β3 and γ2S
[11] = system: β2/3-containing GABAARs vs β1-containing GABAARs; assay: GABAAR subtype selectivity of potentiation; format: cell-based; conditions: low, subsaturating GABA
[12] = system: α2β3γ2S GABAAR; assay: Two-electrode voltage clamp, potentiation of EC5 GABA currents in oocytes; format: cell-based, human α2, rat β and γ2S
[13] = biological target: T1, α1β2γ2L GABAAR; assay: Two-electrode voltage clamp, concentration-response and mechanistic; format: cell-based, rat (β2 rat or human)
[14] = biological target: α1β2(K279A+D282A)γ2L GABAAR (Rattus norvegicus, UniProt P62813+P63138, D306A/K303A); format: cell-based, rat (β2 rat or human); conditions: β2(K279A+D282A)
[15] = biological target: α1β3γ2S GABAAR (Rattus norvegicus, UniProt P62813+P63079); format: cell-based
[16] = biological target: α1β3(M286C)γ2S GABAAR (Rattus norvegicus, UniProt P62813+P63079, M311C); assay: Two-electrode voltage clamp, potentiation of low GABA currents in oocytes; format: cell-based; conditions: 100 μM (+)-catharanthine, ~EC5 GABA, n = 5 oocytes
[17] = biological target: α1β2(D282A)γ2L GABAAR (Rattus norvegicus, UniProt P62813+P63138, D306A); format: cell-based, rat (β2 rat or human); conditions: β2(D282A)
[18] = 100 μM (+)-catharanthine, % over control EC5 GABA, mean ± SEM
[19] = absence of GABA, Hill equation fit
[20] = calculated from cCath, NCath = 2
[21] = read-out: KCath (estimated affinity of (+)-catharanthine for the resting receptor), low GABA (PA ~0.2), Eq. 1, NCath = 2, mean ± SEM, 5 oocytes
[22] = low GABA (PA ~0.2), Eq. 1, NCath = 2
[23] = 1 μM R(+)-etomidate + 10 μM (+)-catharanthine
[24] = GABA + 3 μM loreclezole + 30 μM (+)-catharanthine

Structure (SMILES): CCC1=C[C@@H]2CN3CCc4c([nH]c5ccccc45)[C@@](C(=O)OC)(C2)[C@@H]13 [(+)-catharanthine, (+)-3,4-didehydrocoronaridine]
- (+)-Catharanthine maximal potentiation (%) [1, 18]: 739 ± 110 (11) %
- potentiation of the response to low GABA ([1]; 100 μM (+)-catharanthine, ~EC5 GABA): 1099 ± 163%
- (+)-Catharanthine relative potentiation (αxβ2/3γ2S)/(αxβ1γ2S) ([1]; α1β2γ2S vs α1β1γ2S, 100 μM): 2.7
- Kd ([2]; read-out: KCath (estimated affinity of (+)-catharanthine for the resting receptor), direct activation in the absence of GABA (PA,constitutive 0.22), Eq. 1, NCath = 2, 5 oocytes): 17.8 ± 1.6 µM
- cCath (ratio of the affinities for the active and resting states) ([2]; absence of GABA, Eq. 1, NCath = 2): 0.421±0.034
- EC50 [2, 19]: 13.6 ± 2 µM
- nH [2, 19]: 1.08±0.11
- ΔG [2, 20]: -1.04 ± 0.10 kcal/mol
- Kd [3, 21]: 18.8 ± 3.3 µM
- ΔG [3, 20]: -1.53 ± 0.11 kcal/mol
- cCath (ratio of the affinities for the active and resting states) [3, 22]: 0.279±0.022
- EC50 ([3]; low GABA, Hill equation fit): 9.3 ± 1.2 µM
- nH ([3]; low GABA, Hill equation fit): 1.29±0.10
- (+)-Catharanthine maximal potentiation (%) [4]: 269 ± 42 (4) %
- (+)-Catharanthine maximal potentiation (%) [5]: 211 ± 26 (5) %
- predicted PA, model with overlapping sites (Eq. 2) [6, 23]: 0.024 ± 0.006
- predicted PA, model with unique non-overlapping sites (Eq. 1) [6, 23]: 0.115 ± 0.031
- PA of peak response, observed ([6]; 10 μM (+)-catharanthine coapplied with 1 μM R(+)-etomidate, 7 oocytes): 0.086 ± 0.024
- potentiation of GABA-activated receptors ([6]; 10 μM (+)-catharanthine, 0.05 μM GABA): 1600 ± 400%
- potentiation of the peak response elicited by R(+)-etomidate ([6]; 10 μM (+)-catharanthine, 1 μM R(+)-etomidate, n = 7 oocytes): 160 ± 24%
- potentiation of the peak response to pregnanolone ([6]; 10 μM (+)-catharanthine, 2 μM pregnanolone, five oocytes): 2200 ± 400%
- potentiation of GABA-activated receptors ([6]; 10 μM (+)-catharanthine, 1–2 μM GABA): 353 ± 68%
- PA of the peak response, observed ([6]; 0.2–0.5 μM GABA + 3 μM loreclezole + 30 μM (+)-catharanthine): 0.21 ± 0.13
- PA of the peak response ([6]; 0.2–0.5 μM GABA + 30 μM (+)-catharanthine): 0.16 ± 0.11
- predicted PA, distinct site model [6, 24]: 0.62 ± 0.17
- predicted PA, same site model [6, 24]: 0.19 ± 0.11
- potentiation of GABA-evoked currents [7]: 231 ± 33%
- Kd [8, 21]: 23.9 ± 2.5 µM
- ΔG [8, 20]: -1.12 ± 0.07 kcal/mol
- cCath (ratio of the affinities for the active and resting states) [8, 22]: 0.390±0.021
- EC50 ([8]; low GABA, Hill equation fit): 17.7 ± 1.4 µM
- nH ([8]; low GABA, Hill equation fit): 1.53±0.13
- potentiation of the response to low GABA [9]: 224 ± 13%
- (+)-Catharanthine maximal potentiation (%) ([10]; 100 μM (+)-catharanthine, % over control EC5 GABA, second line printed α2β3γ2S): 728 ± 120 (4) %
- (+)-Catharanthine relative potentiation (αxβ2/3γ2S)/(αxβ1γ2S) ([10]; second line printed α2β3γ2S vs α2β1γ2S, 100 μM): 3.5
- efficacy of potentiation at β2/3-containing relative to β1-containing GABAARs [11]: 2.4–3.5 times
- (+)-Catharanthine maximal potentiation (%) ([12]; 100 μM (+)-catharanthine, % over control EC5 GABA, first line printed α2β3γ2S): 691 ± 65 (5) %
- (+)-Catharanthine relative potentiation (αxβ2/3γ2S)/(αxβ1γ2S) ([12]; first line printed α2β3γ2S vs α2β1γ2S, 100 μM): 3.3
- maximal efficacy [(PAmax/PAmin)-1 × 100] / maximum potentiation ([13]; 2 μM GABA, Hill equation fit, % of control): 341%
- potentiation of GABA-evoked currents ([13]; 30 μM (+)-catharanthine, 2 μM GABA, n = 6 oocytes): 372 ± 72%
- EC50 ([13]; read-out: EC50 for potentiation, wild-type, 2 μM GABA, Hill equation fit): 13.5 ± 1.8 µM
- Kd ([13]; read-out: KCath (estimated affinity of (+)-catharanthine for the resting receptor), wild-type, 2 μM GABA background, fit to Eq. 1, NCath constrained to 2, mean ± SEM, 5 oocytes): 29.4 ± 6 µM
- cCath (ratio of the affinities for the active and resting states) ([13]; wild-type, 2 μM GABA background, fit to Eq. 1, NCath constrained to 2): 0.231 and 0.231±0.023
- nH (Hill coefficient) ([13]; wild-type, 2 μM GABA, Hill equation fit): 1.66 and 1.66±0.33
- ΔG (free energy change to stabilize the active state) ([13]; wild-type, calculated from cCath as NCathRTln(cCath), NCath = 2): -1.76 kcal/mol and -1.76 ± 0.12 kcal/mol
- ΔG [14, 20]: −0.19 ± 0.01 kcal/mol and −0.19±0.01nd kcal/mol
- cCath (ratio of the affinities for the active and resting states) ([14]; pooled data, best-fit ± standard error of the fit): 0.848±0.010nd
- EC50 ([14]; pooled data, Hill equation fit): 15.8 ± 5.9 µM
- nH ([14]; pooled data, Hill equation fit): 1.30
- (+)-Catharanthine maximal potentiation (%) [15, 18]: 646 ± 64 (10) %
- potentiation of the response to low GABA ([15]; 100 μM (+)-catharanthine, ~EC5 GABA, n = 6 oocytes): 667 ± 111%
- (+)-Catharanthine relative potentiation (αxβ2/3γ2S)/(αxβ1γ2S) ([15]; α1β3γ2S vs α1β1γ2S, 100 μM): 2.4
- potentiation of the response to low GABA [16]: 651 ± 115%
- Kd [17, 21]: 7.1 ± 2.8 µM
- ΔG [17, 20]: -0.55 ± 0.07 kcal/mol
- cCath (ratio of the affinities for the active and resting states) [17, 22]: 0.630±0.039
- EC50 ([17]; low GABA, Hill equation fit): 7.7 ± 1.6 µM
- nH ([17]; low GABA, Hill equation fit): 1.88±0.39
